Source: ChEMBL document CHEMBL3132826, “Investigation of a tetrahydroisoquinoline scaffold as dual-action steroid sulfatase inhibitors generated by parallel solid-phase synthesis” (Medchemcomm, 2013)

Experiments:
[1] = Estrogenic activity in human Saos2 cells assessed as increase in alkaline phosphatase activity at 1 nM; type: ADME, cell-based; details: saos-2, 0.001 µM
MCF7 [2] = test: Estrogenic activity in human MCF7 cells assessed as cell proliferation at 0.01 uM by MTS assay relative to basal level; type: ADME, cell-based; details: mcf7, 0.01 µM
MCF7 [3] = test: Estrogenic activity in human MCF7 cells assessed as cell proliferation at 0.1 uM by MTS assay relative to basal level; type: ADME, cell-based; details: mcf7, 0.1 µM
MCF7 [4] = test: Estrogenic activity in human MCF7 cells assessed as cell proliferation at 1 uM by MTS assay relative to basal level; type: ADME, cell-based; details: mcf7, 1 µM
[5] = Estrogenic activity in human Saos2 cells assessed as cell proliferation at 1 uM; type: ADME, cell-based; details: saos-2, 1 µM
[6] = target: T1, Steryl-sulfatase (Homo sapiens) (UniProt P08842); test: Inhibition of STS (unknown origin) expressed in HEK-293 cells assessed as transformation of [3H]-E1S into E1 at 1 uM by […]; type: cell-based; details: HEK293
T1 sequence (whole entry): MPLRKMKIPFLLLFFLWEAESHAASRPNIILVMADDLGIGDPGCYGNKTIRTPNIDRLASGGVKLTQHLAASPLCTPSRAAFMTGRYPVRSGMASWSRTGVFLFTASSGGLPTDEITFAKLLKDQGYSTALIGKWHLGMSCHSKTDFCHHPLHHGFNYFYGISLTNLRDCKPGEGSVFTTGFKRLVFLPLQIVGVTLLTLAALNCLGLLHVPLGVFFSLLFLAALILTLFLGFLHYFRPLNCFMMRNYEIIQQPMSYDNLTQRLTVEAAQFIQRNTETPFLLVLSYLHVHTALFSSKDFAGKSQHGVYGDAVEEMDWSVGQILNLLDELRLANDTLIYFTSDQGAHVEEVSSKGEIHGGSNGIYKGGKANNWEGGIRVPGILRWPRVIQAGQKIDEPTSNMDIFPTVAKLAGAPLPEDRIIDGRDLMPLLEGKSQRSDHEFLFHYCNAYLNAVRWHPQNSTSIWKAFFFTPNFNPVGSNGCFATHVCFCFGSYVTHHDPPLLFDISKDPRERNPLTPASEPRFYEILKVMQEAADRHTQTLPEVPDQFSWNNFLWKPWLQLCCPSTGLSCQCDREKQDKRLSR

[7] = Lipophilicity, log P of the compound; type: physicochemical; details: octanol/water
[8] = target: T1, Steryl-sulfatase (Homo sapiens); test: Inhibition of STS (unknown origin) expressed in HEK-293 cells assessed as transformation of [3H]-E1S into E1 at 0.1 uM by […]; type: cell-based; details: HEK293
MCF7 [9] = test: Estrogenic activity in human MCF7 cells assessed as cell proliferation at 0.1 nM by MTS assay relative to basal level; type: ADME, cell-based; details: mcf7, 0.0001 µM

Row | Structure (SMILES) | Activity [1] [%] | Activity (MCF7 [2]) [%] | Activity (MCF7 [3]) [%] | Activity (MCF7 [4]) [%] | Activity [5] | inhibition [6] [%] | logP [7] | inhibition [8] [%] | Activity (MCF7 [9]) [%]
1 | CCN(Cc1ccccn1)c1ccc(C(=O)N2CCc3ccc(O)cc3C2)cc1 | 147 | 2.7 | 0 | 84 | 140% | – | – | – | –
2 | CN(CCN1CCCCC1)c1ccc(C(=O)N2CCc3ccc(O)cc3C2)cc1 | – | 2.1 | 4.6 | 12.2 | – | – | – | – | –
3 | CC(C)CCN(CCC(C)C)c1ccc(C(=O)N2CCc3ccc(O)cc3C2)cc1 | 133 | 0 | 0 | 0 | Toxic | – | – | – | –
4 | CCN(Cc1ccc(F)cc1)c1ccc(C(=O)N2CCc3ccc(O)cc3C2)cc1 | 152 | 0 | 0 | 4.8 | Toxic | – | – | – | –
5 | O=C(c1ccc(N(Cc2ccccc2)Cc2ccco2)cc1)N1CCc2ccc(O)cc2C1 | 133 | 0 | 0 | 7.7 | Toxic | – | – | – | –
6 | CCN(Cc1ccc(Br)cc1)c1ccc(C(=O)N2CCc3ccc(O)cc3C2)cc1 | – | 0 | 10.6 | 76.7 | – | – | – | – | –
7 | CCCN(Cc1ccccc1)c1cccc(C(=O)N2CCc3ccc(O)cc3C2)c1 | – | 1.6 | 0 | 20.8 | – | – | – | – | –
8 | CN(C)CCN(CCN(C)C)c1cccc(C(=O)N2CCc3ccc(O)cc3C2)c1 | – | 0 | 14.6 | 84.1 | – | – | – | – | –
9 | CCN(Cc1ccccc1)c1ccc(C(=O)N2CCc3ccc(OS(N)(=O)=O)cc3C2)cc1 | – | – | – | – | – | 83.6 | 3.08 | 66.9 | –
10 | CCN(Cc1ccncc1)c1ccc(C(=O)N2CCc3ccc(O)cc3C2)cc1 | 133 | 0 | 0 | 0 | Toxic | – | – | – | –
11 | CN(C)CCCN(Cc1ccccc1)c1ccc(C(=O)N2CCc3ccc(O)cc3C2)cc1 | – | 19.4 | 18.3 | 25.9 | – | – | – | – | –
12 | CC/C(=C(\c1ccccc1)c1ccc(OCCN(C)C)cc1)c1ccccc1 [TAMOXIFEN] | 143 | – | – | – | – | – | – | – | –
13 | CCN(Cc1cccnc1)c1cccc(C(=O)N2CCc3ccc(O)cc3C2)c1 | – | 0 | 0 | 0 | – | – | – | – | –
14 | CN(C)CCN(CCN(C)C)c1ccc(C(=O)N2CCc3ccc(O)cc3C2)cc1 | – | 0 | 0 | 4.5 | – | – | – | – | –
15 | CN(CCCN1CCCCC1)c1cccc(C(=O)N2CCc3ccc(O)cc3C2)c1 | – | 2.9 | 2.5 | 19 | – | – | – | – | –
16 | O=C(c1cccc(N(Cc2ccccc2)Cc2ccco2)c1)N1CCc2ccc(O)cc2C1 | – | 44.9 | 63.3 | 80.7 | – | – | – | – | –
17 | C[C@]12CC[C@@H]3c4ccc(O)cc4CC[C@H]3[C@@H]1CC[C@@H]2O [ESTRADIOL] | 148 | – | – | – | 144% | – | – | – | 75.6
18 | CCN(Cc1ccncc1)c1cccc(C(=O)N2CCc3ccc(O)cc3C2)c1 | – | 6 | 0 | 12.8 | – | – | – | – | –
19 | CN(CCN1CCCCC1)c1cccc(C(=O)N2CCc3ccc(O)cc3C2)c1 | – | 0 | 0 | 5.3 | – | – | – | – | –
20 | NS(=O)(=O)Oc1ccc2c(c1)CN(C(=O)c1ccc(N3CCC(Cc4ccccc4)CC3)cc1)CC2 | – | – | – | – | – | 81.3 | 3.87 | 41.4 | –
21 | O=C(c1cccc(N2CCc3ccccc3C2)c1)N1CCc2ccc(O)cc2C1 | – | 0 | 0 | 14.7 | – | – | – | – | –
22 | CN(C)CCN(Cc1ccccc1)c1ccc(C(=O)N2CCc3ccc(O)cc3C2)cc1 | – | 9.6 | 6.3 | 4.6 | – | – | – | – | –
23 | CCCN(CCC)c1ccc(C(=O)N2CCc3ccc(OS(N)(=O)=O)cc3C2)cc1 | – | – | – | – | – | 84.7 | 3.07 | 36.6 | –
24 | CCN(Cc1cccnc1)c1ccc(C(=O)N2CCc3ccc(O)cc3C2)cc1 | 133 | 0 | 2 | 0 | Toxic | – | – | – | –
25 | CCCN(Cc1ccccc1)c1ccc(C(=O)N2CCc3ccc(O)cc3C2)cc1 | – | 0 | 0 | 8.9 | – | – | – | – | –
26 | CN(CCCN1CCCCC1)c1ccc(C(=O)N2CCc3ccc(O)cc3C2)cc1 | – | 0 | 0 | 0 | – | – | – | – | –
27 | O=C(c1ccc(N(CCO)Cc2ccccc2)cc1)N1CCc2ccc(O)cc2C1 | – | 8.4 | 14.8 | 34.6 | – | – | – | – | –
28 | CCN(Cc1cccc(Br)c1)c1cccc(C(=O)N2CCc3ccc(O)cc3C2)c1 | – | 0 | 0 | 8.5 | – | – | – | – | –
29 | O=C(c1cccc(N(CCCO)Cc2ccccc2)c1)N1CCc2ccc(O)cc2C1 | – | 0 | 14.2 | 94.2 | – | – | – | – | –
30 | O=C(c1ccc(N2CCc3ccccc3C2)cc1)N1CCc2ccc(O)cc2C1 | 133 | 0 | 1.7 | 6.3 | Toxic | – | – | – | –
